Assay results: patent publication US4039660A, “Antibiotic Y-G19Z D3 and the production thereof” (Yamanouchi Pharmaceutical Co., Ltd., priority 1974, dated 1977)

Experiments:
Assay in all cases: Inhibition zone, disc on seeded Heart infusion agar
Format in all cases: cell-based
[1] = test system: Basillus subtilis ATCC 6633; conditions: read-out: diameter of the inhibition zone
Excerpt: (§1) Antimicrobial activities of Y-G19ZD3 in comparison with those of Cephalosporin C against various microorganisms are shown in Table 3. The figure indicates the diameter (mm) of the inhibition zone obtained with a disc dipped in 125 mcg/ml solution on Heart infusion agar seeded with each organism.

Klebsiella pneumoniae = conditions: disc dipped in 125 mcg/ml solution, read-out: diameter of the inhibition zone
Excerpt: as §1

[2] = test system: Proteus mirabilis IMF-OM9; conditions: IMFOM9, read-out: diameter of the inhibition zone
Excerpt: as §1

Proteus morganii = conditions: Morganella morganii, disc dipped in 125 mcg/ml solution, read-out: diameter of the inhibition zone
Excerpt: as §1

Proteus vulgaris = conditions: disc dipped in 125 mcg/ml solution, read-out: diameter of the inhibition zone
Excerpt: as §1

Sarcina lutea ATCC 9941 = conditions: Micrococcus luteus, ATCC9941, read-out: diameter of the inhibition zone
Excerpt: as §1

[3] = test system: Staphylococcus aureus 209 P; conditions: disc dipped in 125 mcg/ml solution, read-out: diameter of the inhibition zone
Excerpt: as §1

Question: How did the zone of inhibition at 125 µg/mL [1] turn out when `CC(=O)OCC1=C(C(=O)O)N2C(=O)[C@@H](NC(=O)CCC[C@@H](N)C(=O)O)[C@H]2SC1` [Cephalosporin C] was run?
Answer: 13.5 mm

Question: And the zone of inhibition at 125 µg/mL (Klebsiella pneumoniae)?
Answer: 0 mm

Question: What about the zone of inhibition at 125 µg/mL [2] of the same compound?
Answer: 17.6 mm

Question: And the zone of inhibition at 125 µg/mL (Proteus morganii)?
Answer: 0 mm

Question: And the zone of inhibition at 125 µg/mL (Proteus vulgaris)?
Answer: 0 mm

Question: And the zone of inhibition at 125 µg/mL (Sarcina lutea ATCC 9941)?
Answer: 0 mm

Question: And the zone of inhibition at 125 µg/mL [3]?
Answer: 0 mm
